Measured values published in patent publication US20220053762A1, “HERBICIDAL COMPOSITIONS” (Bayer Aktiengesellschaft, priority 2018, published 2022).

Test system: harmful plant species
Experiment: Specific trial examples: binary compositions applied by the post-emergence method, synergistic effect according to Colby (Tables 3.1-3.2)
Type: in vivo
Method: When the observed efficacies already exceed the formal sum total of the values of the tests with individual applications, they also exceed the expected value according to Colby, which is calculated using the formula below and is likewise regarded as an indication of synergism (cf. S. R. Colby; in Weeds 15 (1967) p. 20 to 22):
Seeds or rhizome pieces of mono- and dicotyledonous weeds are placed in sandy loam in pots, covered with soil and grown in a greenhouse under good growth conditions (temperature, air humidity, water supply). Three weeks after sowing, the test plants are treated at the three-leaf stage with the compositions according to the invention. The compositions according to the invention formulated as spray powders or as emulsion concentrates are sprayed onto the green plant parts in various dosages with an application rate of 300 to 800 l/ha of water (equivalent).
The sum total of the effects of the individual applications is reported under E^A; Expected values according to Colby are each reported under E^C.
The rating period is reported in days after application (DAT).

C=C[C@]1(C(=O)N[C@H]2CO[C@@H](C(=O)NS(=O)(=O)C(F)(F)F)C2)CC(c2cc(F)cc(F)c2)=NO1 (relative stereo) [Compound A1, (5S)-3-(3,5-difluorophenyl)-N-[rel-(3R,5R)-5-(trifluoromethylsulfonylcarbamoyl)tetrahydrofuran-3-yl]-5-vinyl-4H-isoxazole-5-carboxamide]
20%: Herbicidal action 28 DAT against Centaurea cyanus (5 g a.i./ha) | Herbicidal action 28 DAT against Lamium purpureum (5 g a.i./ha) | Herbicidal action 28 DAT against Viola tricolor (15 g a.i./ha)
10%: Herbicidal action 28 DAT against Euphorbia heterophylla (15 g a.i./ha) | Herbicidal action 28 DAT against Ipomoea purpurea (45 g a.i./ha) | Herbicidal action 28 DAT [%] against Setaria viridis (post-emergence, single active compound (Glyphosate series), g a.i./ha: r786 450, r788 1.67)
80%: Herbicidal action 28 DAT against Raphanus raphanistrum (5 g a.i./ha) | Herbicidal action 28 DAT [%] against Raphanus raphanistrum (post-emergence, single active compound, g a.i./ha: r282 5, r283 150, r284 50)
30%: Herbicidal action 28 DAT against Centaurea cyanus (15 g a.i./ha) | Herbicidal action 28 DAT against Galium aparine (15 g a.i./ha) | Herbicidal action 28 DAT [%] against Digitaria sanguinalis (post-emergence, single active compound (Glyphosate series), g a.i./ha: r765 50, r767 15)
15%: Herbicidal action against Echinochloa crus-galli (28 DAT, g a.i./ha: r22 270, r23 90, r24 30, r25 5, r26 1.67) | Herbicidal action 28 DAT [%] against Echinochloa crus-galli (post-emergence, single active compound, g a.i./ha: r19 150, r20 50, r21 5)
93%: Herbicidal action 28 DAT against Polygonum convulvulus (15 g a.i./ha)
35%: Herbicidal action 28 DAT against Euphorbia heterophylla (45 g a.i./ha)
40%: Herbicidal action against Eleusine indica (28 DAT, g a.i./ha: r62 270, r63 30, r64 15, r65 5) | Herbicidal action 28 DAT [%] against Papaverrhoeas (post-emergence, single active compound, g a.i./ha: r235 5, r236 450, r237 50)
70%: Herbicidal action 28 DAT against Polygonum convolvulus (15 g a.i./ha) | Herbicidal action 28 DAT [%] against Lamium purpureum (post-emergence, single active compound, g a.i./ha: r204 45, r205 50)
60%: Herbicidal action 28 DAT against Alopecurus myosuroides (resistant biotype) (15 g a.i./ha) | Herbicidal action 28 DAT against Alopecurus myosuroides (sensitive biotype) (15 g a.i./ha) | Herbicidal action 28 DAT against Phalaris minor (15 g a.i./ha) | Herbicidal action against Alopecurus myosuroides (resistant biotype) (28 DAT, g a.i./ha: r165 15, r166 90, r167 30)
50%: Herbicidal action 28 DAT against Avena fatua (5 g a.i./ha) | Herbicidal action 28 DAT against Polygonum convulvulus (5 g a.i./ha) | Herbicidal action 28 DAT against Lamium purpureum (15 g a.i./ha) | Herbicidal action against Polygonum convulvulus (28 DAT, g a.i./ha: r137 270, r138 90, r139 30, r140 5) | Herbicidal action 28 DAT against Galium aparine (45 g a.i./ha)
0%: Herbicidal action 28 DAT against Lolium rigidum (resistant biotype) (1.67 g a.i./ha) | Herbicidal action 28 DAT against Lolium rigidum (sensitive biotype) (1.67 g a.i./ha) | Herbicidal action 28 DAT against Alopecurus myosuroides (sensitive biotype) (5 g a.i./ha) | Herbicidal action 28 DAT against Bromus sterilis (5 g a.i./ha) | Herbicidal action 28 DAT against Euphorbia heterophylla (5 g a.i./ha) | Herbicidal action 28 DAT against Galium aparine (5 g a.i./ha) | Herbicidal action 28 DAT against Hordeum murinum (5 g a.i./ha) | Herbicidal action 28 DAT against Ipomoea purpurea (5 g a.i./ha) | Herbicidal action 28 DAT against Lolium rigidum (resistant biotype) (5 g a.i./ha) | Herbicidal action 28 DAT against Lolium rigidum (sensitive biotype) (5 g a.i./ha) | Herbicidal action 28 DAT against Phalaris minor (5 g a.i./ha) | Herbicidal action 28 DAT against Polygonum convolvulus (5 g a.i./ha) | Herbicidal action 28 DAT against Stellaria media (5 g a.i./ha) | Herbicidal action 28 DAT against Veronica hederifolia (5 g a.i./ha) | Herbicidal action 28 DAT against Viola tricolor (5 g a.i./ha) | Herbicidal action 28 DAT against Ipomoea purpurea (15 g a.i./ha) | Herbicidal action 28 DAT against Lolium rigidum (resistant biotype) (15 g a.i./ha) | Herbicidal action 28 DAT against Lolium rigidum (sensitive biotype) (15 g a.i./ha) | Herbicidal action against Lolium rigidum (resistant bio type) (28 DAT, g a.i./ha: r220 15, r221 5, r222 270, r223 90) | Herbicidal action against Veronica hederifolia (28 DAT, g a.i./ha: r294 5, r295 90) | Herbicidal action 28 DAT [%] against Abutilon theophrasti (post-emergence, single active compound (Glyphosate series), g a.i./ha: r796 450, r798 5) | Herbicidal action 28 DAT [%] against Bromus sterilis (post-emergence, single active compound, g a.i./ha: r172 5, r173 1.67, r174 450) | Herbicidal action 28 DAT [%] against Galium aparine (post-emergence, single active compound, g a.i./ha: r183 5, r184 50) | Herbicidal action 28 DAT [%] against Lolium rigidum (sensitive biotype) (post-emergence, single active compound, g a.i./ha: r214 15, r215 150, r216 50) | Herbicidal action 28 DAT [%] against Lolium rigidum (resistant biotype) (post-emergence, single active compound, g a.i./ha: r224 15, r225 5, r226 150, r227 50) | Herbicidal action 28 DAT [%] against Veronica hederifolia (post-emergence, single active compound, g a.i./ha: r292 5, r293 150)

C[C@]1(C(=O)N[C@H]2CO[C@@H](C(=O)NS(C)(=O)=O)C2)CC(c2cc(F)cc(F)c2)=NO1 (relative stereo) [Compound A2, (5R)-3-(3,5-difluorophenyl)-5-methyl-N-[rel-(3R,5R)-5-(methylsulfonylcarbamoyl)tetrahydrofuran-3-yl]-4H-isoxazole-5-carboxamide]
35%: Herbicidal action 28 DAT against Eleusine indica (5 g a.i./ha) | Herbicidal action 28 DAT [%] against Eleusine indica (post-emergence, single active compound (A2 series), g a.i./ha: r337 150, r339 5)
15%: Herbicidal action 28 DAT against Amaranthus palmeri (res.) (5 g a.i./ha) | Herbicidal action 28 DAT against Sorghum halepense (15 g a.i./ha)
10%: Herbicidal action 28 DAT against Echinochloa crus-galli (1.7 g a.i./ha) | Herbicidal action against Bidens pilosa ((Z32) 28 DAT, g a.i./ha: r337 270, r338 90, r339 30, r340 15) | Herbicidal action against Digitaria sanguinalis ((Z32) 28 DAT, g a.i./ha: r361 270, r362 90, r363 30, r364 15)
80%: Herbicidal action 28 DAT against Polygonum convolvulus (5 g a.i./ha) | Herbicidal action against Polygonum convolvulus ((Z32) 28 DAT, g a.i./ha: r419 90, r420 30, r421 5) | Herbicidal action 28 DAT [%] against Polygonum convulvulus (post-emergence, single active compound (A2 series), g a.i./ha: r357 50, r359 5)
30%: Herbicidal action 28 DAT against Eleusine indica (1.7 g a.i./ha)
0%: Herbicidal action 28 DAT against Brachiaria platyphylla (1.7 g a.i./ha) | Herbicidal action 28 DAT against Digitaria sanguinalis (1.7 g a.i./ha) | Herbicidal action 28 DAT against Sorghum halepense (1.7 g a.i./ha) | Herbicidal action 28 DAT against Digitaria sanguinalis (5 g a.i./ha) | Herbicidal action 28 DAT against Sorghum halepense (5 g a.i./ha) | Herbicidal action 28 DAT [%] against Digitaria sanguinalis (post-emergence, single active compound (A2 series), g a.i./ha: r326 150, r327 50, r328 5, r329 1.7)
75%: Herbicidal action 28 DAT against Pharbitis purpurea (5 g a.i./ha) | Herbicidal action against Pharbitis purpurea ((Z32) 28 DAT, g a.i./ha: r408 270, r409 90, r410 30, r411 5)
65%: Herbicidal action 28 DAT against Amaranthus palmeri (res.) (15 g a.i./ha)
20%: Herbicidal action 28 DAT against Echinochloa crus-galli (5 g a.i./ha) | Herbicidal action 28 DAT against Kochia scoparia (5 g a.i./ha) | Herbicidal action 28 DAT against Kochia scoparia (15 g a.i./ha) | Herbicidal action against Abutilon theophrasti ((Z32) 28 DAT, g a.i./ha: r315 270, r316 90, r317 30, r318 15) | Herbicidal action against Echinochloa crus-galli ((Z32) 28 DAT, g a.i./ha: r372 270, r373 90, r374 30, r375 5) | Herbicidal action against Kochia scoparia ((Z32) 28 DAT, g a.i./ha: r396 270, r397 90, r398 15, r399 5) | Herbicidal action 28 DAT [%] against Kochia scoparia (post-emergence, single active compound (A2 series), g a.i./ha: r347 50, r349 5)
45%: Herbicidal action 28 DAT against Eleusine indica (15 g a.i./ha)

C=C[C@]1(C(=O)N[C@H]2CO[C@@H](C(=O)NOC)C2)CC(c2cc(C)cc(F)c2)=NO1 (relative stereo) [Compound A3, (5S)-3-(3-fluoro-5-methylphenyl)-N-[rel-(3R,5R)-5-(methoxycarbamoyl)tetrahydrofuran-3-yl]-5-vinyl-4H-isoxazole-5-carboxamide]
10%: Herbicidal action 28 DAT against Amaranthus palmeri (res.) (15 g a.i./ha) | Herbicidal action against Abutilon theophrasti (Z61 28 DAT, g a.i./ha: r459 30, r460 15) | Herbicidal action against Amaranthus palmeri (res.) (Z61 28 DAT, g a.i./ha: r467 90, r468 30, r469 15, r470 5) | Herbicidal action against Brachiaria platyphylla (Z61 28 DAT, g a.i./ha: r479 30, r480 1.7)
70%: Herbicidal action against Eleusine indica (Z61 28 DAT, g a.i./ha: r487 270, r488 5) | Herbicidal action 28 DAT [%] against Pharbitis purpurea (post-emergence, single active compound, g a.i./ha: r396 50, r398 5)
20%: Herbicidal action 28 DAT against Amaranthus palmeri (res.) (45 g a.i./ha) | Herbicidal action 28 DAT against Kochia scoparia (45 g a.i./ha)
